Measurements published in patent US8735398B2 (Bristol-Myers Squibb Company, priority 2009, dated 2014).
Where two headings read alike, the source gives them in different places.

System: HCV 1b genotype
Test: HCV replicon assay (HCV-neo replicon cells, wild-type)
Assay type: cell-based, Hepatitis C virus
Conditions: Hepatitis C virus, HCV 1b genotype replicon
How it was run: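 HCV-neo replicon cells (wild-type) and replicon cells carrying NS5A resistance substitutions were treated with compounds; assay per O'Boyle et al. 2005, with luciferase-reporter read-out variants also used.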

[1] = class symbols, read-out: EC50 Range against HCV 1b
[2] = class symbol, read-out: EC50 Range against HCV 1b

Compound	EC50 [1]	EC50 [2]	EC50 (read-out: EC50 1b)
Cc1cc(CC(=O)N2C[C@H](O)C[C@H]2C(=O)Nc2ccc(-c3cnc(-c4ccc(NC(=O)[C@@H]5C[C@@H](O)CN5C(=O)Cc5cc(C)no5)cc4)o3)cc2)on1 [XY-52, (2S,4R,2′S,4′R)-N,N′-(1,3-oxazole-2,5-diyldi-4,1-phenylene)bis(4-hydroxy-1-((3-methyl-5-isoxazolyl)acetyl)-2-pyrrolidinecarboxamide)]	1000 to 10000 nM	–	–
COc1ccc(C(=O)N2CCC[C@H]2C(=O)Nc2ccc(-c3cnc(-c4ccc(NC(=O)[C@@H]5CCCN5C(=O)c5ccc(OC)cc5)cc4)o3)cc2)cc1 [XY-29, (2S,2′S)-N,N′-(1,3-oxazole-2,5-diyldi-4,1-phenylene)bis(1-(4-methoxybenzoyl)-2-pyrrolidinecarboxamide)]	100 to 999 nM	–	–
CC(=O)N1CCC[C@H]1C(=O)Nc1ccc(-c2sc(C)nc2-c2ccc(NC(=O)[C@@H]3CCCN3C(=O)Cc3ccccc3)cc2)cc1 [Example D-42, (2S)-1-acetyl-N-(4-(2-methyl-4-(4-((((2S)-1-(phenylacetyl)-2-pyrrolidinyl)carbonyl)amino)phenyl)-1,3-thiazol-5-yl)phenyl)-2-pyrrolidinecarboxamide]	–	1000 to 10000 nM	–
CC(C)[C@H](NC(=O)OCc1ccccc1)C(=O)Nc1ccc(-c2cnc(-c3ccc(NC(=O)[C@@H](NC(=O)OCc4ccccc4)C(C)C)cc3)o2)cc1 [JG-4, dibenzyl (1,3-oxazole-2,5-diylbis(4,1-phenyleneimino((2S)-3-methyl-1-oxo-1,2-butanediyl)))biscarbamate]	–	100 to 999 nM	–
CCOC(=O)Cc1nc(-c2ccc(NC(=O)[C@H](C)NC(=O)OCc3ccccc3)cc2)c(-c2ccc(NC(=O)[C@H](C)NC(=O)OCc3ccccc3)cc2)o1 [OL-1d, 4,5-bis[4-[[(2S)-1-oxo-2-[[(phenylmethoxy)carbonyl]amino]propyl]amino]phenyl]-2-oxazoleacetic acid, ethyl ester]	–	1000 to 10000 nM	–
O=C(Nc1ccc(-c2cnc(-c3ccc(NC(=O)[C@@H]4CCCN4C(=O)CC4CC4)cc3)o2)cc1)[C@@H]1CCCN1C(=O)CC1CC1 [XY-24, (2S,2′S)-N,N′-(1,3-oxazole-2,5-diyldi-4,1-phenylene)bis(1-(cyclopropylacetyl)-2-pyrrolidinecarboxamide)]	100 to 999 nM	–	–
CC(C)(C)O[C@@H]1C[C@@H](C(=O)Nc2ccc(-c3cnc(-c4ccc(NC(=O)[C@@H]5C[C@@H](OC(C)(C)C)CN5C(=O)c5cccs5)cc4)o3)cc2)N(C(=O)c2cccs2)C1 [XY-76, (2S,4R,2′S,4′R)-N,N′-(1,3-oxazole-2,5-diyldi-4,1-phenylene)bis(4-tert-butoxy-1-(2-thienylcarbonyl)-2-pyrrolidinecarboxamide)]	1000 to 10000 nM	–	–
CN(C)[C@@H](C(=O)N1CCC[C@H]1C(=O)N1CCC[C@H]1C(=O)Nc1ccc(-c2cnc(-c3ccc(NC(=O)[C@@H]4CCCN4C(=O)[C@@H]4CCCN4C(=O)[C@@H](c4ccccc4)N(C)C)cc3)o2)cc1)c1ccccc1 [Example D-38, (2S,2′S)-N,N′-(1,3-oxazole-2,5-diyldi-4,1-phenylene)bis(1-(((2S)-1-((2R)-2-(dimethylamino)-2-phenylacetyl)-2-pyrrolidinyl)carbonyl)-2-pyrrolidinecarboxamide)]	–	100 to 999 nM	110 nM
COc1cccc(CC(=O)N2C[C@H](O)C[C@H]2C(=O)Nc2ccc(-c3cnc(-c4ccc(NC(=O)[C@@H]5C[C@@H](O)CN5C(=O)Cc5cccc(OC)c5)cc4)o3)cc2)c1 [XY-55, (2S,4R,2′S,4′R)-N,N′-(1,3-oxazole-2,5-diyldi-4,1-phenylene)bis(4-hydroxy-1-((3-methoxyphenyl)acetyl)-2-pyrrolidinecarboxamide)]	100 to 999 nM	–	–
Cc1cccc(CC(=O)N2C[C@H](O)C[C@H]2C(=O)Nc2ccc(-c3cnc(-c4ccc(NC(=O)[C@@H]5C[C@@H](O)CN5C(=O)Cc5cccc(C)c5)cc4)o3)cc2)c1 [XY-51, (2S,4R,2′S,4′R)-N,N′-(1,3-oxazole-2,5-diyldi-4,1-phenylene)bis(4-hydroxy-1-((3-methylphenyl)acetyl)-2-pyrrolidinecarboxamide)]	100 to 999 nM	–	–
C[C@](O)(C(=O)N1CCC[C@H]1C(=O)Nc1ccc(-c2nnc(-c3ccc(NC(=O)[C@@H]4CCCN4C(=O)[C@](C)(O)c4ccccc4)cc3)o2)cc1)c1ccccc1 [RK-28, (2S,2′S)-N,N′-(1,3,4-oxadiazole-2,5-diyldi-4,1-phenylene)bis(1-((2R)-2-hydroxy-2-phenylpropanoyl)-2-pyrrolidinecarboxamide)]	–	< 4.57 nM	3 nM
CC(=O)N1CCC[C@H]1C(=O)Nc1ccc(-c2nnc(-c3ccc(NC(=O)[C@@H]4CCCN4C(=O)Cc4ccccc4)cc3)o2)cc1 [Example D-54, (2S)-1-acetyl-N-[4-[5-[4-[[[(2S)-1-(phenylacetyl)-2-pyrrolidinyl]carbonyl]amino]phenyl]-1,3,4-oxadiazol-2-yl]phenyl]-2-pyrrolidinecarboxamide]	–	1000 to 10000 nM	4760 nM
O=C(Nc1ccc(-c2cnc(-c3ccc(NC(=O)[C@@H]4CCCN4C(=O)C4CSC5CCC(=O)N54)cc3)o2)cc1)[C@@H]1CCCN1C(=O)C1CSC2CCC(=O)N21 (stereo partly drawn) [JR-17, (2S,2′S)-N,N′-(2,5-oxazolediyldi-4,1-phenylene)bis[1-[(hexahydro-5-oxopyrrolo[2,1-b]thiazol-3-yl)carbonyl]-2-pyrrolidinecarboxamide]]	1000 to 10000 nM	–	–
Cc1noc(C)c1C(=O)N1CCC[C@H]1C(=O)Nc1ccc(-c2cnc(-c3ccc(NC(=O)[C@@H]4CCCN4C(=O)c4c(C)noc4C)cc3)o2)cc1 [XY-28, (2S,2′S)-N,N′-(1,3-oxazole-2,5-diyldi-4,1-phenylene)bis(1-((3,5-dimethyl-4-isoxazolyl)carbonyl)-2-pyrrolidinecarboxamide)]	100 to 999 nM	–	–
O=C(Nc1ccc(-c2cnc(-c3ccc(NC(=O)[C@@H]4C[C@@H](O)CN4C(=O)Cc4ccccc4)cc3)o2)cc1)[C@@H]1C[C@@H](O)CN1C(=O)Cc1ccccc1 [JG-2, (2S,4R,2′S,4′R)-N,N′-(1,3-oxazole-2,5-diyldi-4,1-phenylene)bis(4-hydroxy-1-(phenylacetyl)-2-pyrrolidinecarboxamide)]	–	< 4.57 nM	2 nM
Cc1cc(C(=O)N2CCC[C@H]2C(=O)Nc2ccc(-c3cnc(-c4ccc(NC(=O)[C@@H]5CCCN5C(=O)c5cc(C)oc5C)cc4)o3)cc2)c(C)o1 [XY-34, (2S,2′S)-N,N′-(1,3-oxazole-2,5-diyldi-4,1-phenylene)bis(1-(2,5-dimethyl-3-furoyl)-2-pyrrolidinecarboxamide)]	100 to 999 nM	–	–
CC(=O)N1CCC[C@H]1C(=O)Nc1ccc(-c2cnc(-c3ccc(NC(=O)[C@@H]4CCCN4C(C)=O)cc3)o2)cc1 [JG-11, (2S,2′S)-N,N′-(1,3-oxazole-2,5-diyldi-4,1-phenylene)bis(1-acetyl-2-pyrrolidinecarboxamide)]	–	1000 to 10000 nM	–
CC(O)(C(=O)N1CCC[C@H]1C(=O)Nc1ccc(-c2ncc(-c3ccc(NC(=O)[C@@H]4CCCN4C(=O)[C@@](C)(O)c4ccccc4)cc3)o2)cc1)c1ccccc1 (stereo partly drawn) [JG-22, (2S)-1-((2S)-2-hydroxy-2-phenylpropanoyl)-N-(4-(2-(4-((((2S)-1-(2-hydroxy-2-phenylpropanoyl)-2-pyrrolidinyl)carbonyl)amino)phenyl)-1,3-oxazol-5-yl)phenyl)-2-pyrrolidinecarboxamide]	–	< 4.57 nM	< 5 nM
COC(C(=O)N1C[C@H](OC(C)(C)C)C[C@H]1C(=O)Nc1ccc(-c2cnc(-c3ccc(NC(=O)[C@@H]4C[C@@H](OC(C)(C)C)CN4C(=O)C(OC)c4ccccc4)cc3)o2)cc1)c1ccccc1 (stereo partly drawn) [XY-67, (2S,4R,2′S,4′R)-N,N′-(1,3-oxazole-2,5-diyldi-4,1-phenylene)bis(4-tert-butoxy-1-(methoxy(phenyl)acetyl)-2-pyrrolidinecarboxamide)]	4.57 to 99 nM	–	–
O=C(Nc1ccc(-c2cc(-c3ccc(NC(=O)[C@@H]4CCCN4C(=O)c4nc(Cl)cc5ccccc45)cc3)[nH]n2)cc1)[C@@H]1CCCN1C(=O)c1nc(Cl)cc2ccccc12 [OL-40, (2S,2′S)-N,N′-(1H-pyrazole-3,5-diyldi-4,1-phenylene)bis(1-((3-chloro-1-isoquinolinyl)carbonyl)-2-pyrrolidinecarboxamide)]	–	4.57 to 99 nM	–
O=C(Nc1ccc(-c2cnc(-c3ccc(NC(=O)[C@@H]4CCCN4C(=O)c4ccoc4)cc3)o2)cc1)[C@@H]1CCCN1C(=O)c1ccoc1 [XY-38, (2S,2′S)-N,N′-(1,3-oxazole-2,5-diyldi-4,1-phenylene)bis(1-(3-furoyl)-2-pyrrolidinecarboxamide)]	4.57 to 99 nM	–	–
O=C(Nc1ccc(-c2cnc(-c3ccc(NC(=O)[C@@H]4CCCN4C(=O)C4CCC4)cc3)o2)cc1)[C@@H]1CCCN1C(=O)C1CCC1 [JG-9, (2S,2′S)-N,N′-(1,3-oxazole-2,5-diyldi-4,1-phenylene)bis(1-(cyclobutylcarbonyl)-2-pyrrolidinecarboxamide)]	–	100 to 999 nM	–
CC(C)(C)O[C@@H]1C[C@@H](C(=O)Nc2ccc(-c3cnc(-c4ccc(NC(=O)[C@@H]5C[C@@H](OC(C)(C)C)CN5C(=O)CC5CC5)cc4)o3)cc2)N(C(=O)CC2CC2)C1 [XY-61, (2S,4R,2′S,4′R)-N,N′-(1,3-oxazole-2,5-diyldi-4,1-phenylene)bis(4-tert-butoxy-1-(cyclopropylacetyl)-2-pyrrolidinecarboxamide)]	100 to 999 nM	–	–
O=C(Nc1ccc(-c2cnc(-c3ccc(NC(=O)[C@@H]4C[C@@H](O)CN4C(=O)C4CCC4)cc3)o2)cc1)[C@@H]1C[C@@H](O)CN1C(=O)C1CCC1 [XY-46, (2S,4R,2′S,4′R)-N,N′-(1,3-oxazole-2,5-diyldi-4,1-phenylene)bis(1-(cyclobutylcarbonyl)-4-hydroxy-2-pyrrolidinecarboxamide)]	100 to 999 nM	–	–
CCC(=O)N1CCC[C@H]1C(=O)Nc1ccc(-c2cc(-c3ccc(NC(=O)[C@@H]4CCCN4C(=O)CC)cc3)[nH]n2)cc1 [OL-32, (2S,2′S)-N,N′-(1H-pyrazole-3,5-diyldi-4,1-phenylene)bis(1-propionyl-2-pyrrolidinecarboxamide)]	–	1000 to 10000 nM	–
